Reference: ChEMBL document CHEMBL4811278, “Discovery of novel modulators for the PPARα (peroxisome proliferator activated receptor α): Potential therapies for nonalcoholic fatty liver disease” (Bioorg Med Chem, 2021)
Active and inactive are the calls of the source. The calls are words filed in the database; no cut-off is given here.

How the values were obtained:
[1] = target: T1, Peroxisome proliferator-activated receptor alpha (Homo sapiens, UniProt Q07869); assay: Agonist activity at Gal4-fused human PPARalpha co-expressed with RXRalpha in monkey CV1 cells assessed as PPRE transcriptional activation incubated for 45 hrs by luciferase reporter gene assay; format: cell-based, CV-1
T1 sequence (Q07869 whole entry): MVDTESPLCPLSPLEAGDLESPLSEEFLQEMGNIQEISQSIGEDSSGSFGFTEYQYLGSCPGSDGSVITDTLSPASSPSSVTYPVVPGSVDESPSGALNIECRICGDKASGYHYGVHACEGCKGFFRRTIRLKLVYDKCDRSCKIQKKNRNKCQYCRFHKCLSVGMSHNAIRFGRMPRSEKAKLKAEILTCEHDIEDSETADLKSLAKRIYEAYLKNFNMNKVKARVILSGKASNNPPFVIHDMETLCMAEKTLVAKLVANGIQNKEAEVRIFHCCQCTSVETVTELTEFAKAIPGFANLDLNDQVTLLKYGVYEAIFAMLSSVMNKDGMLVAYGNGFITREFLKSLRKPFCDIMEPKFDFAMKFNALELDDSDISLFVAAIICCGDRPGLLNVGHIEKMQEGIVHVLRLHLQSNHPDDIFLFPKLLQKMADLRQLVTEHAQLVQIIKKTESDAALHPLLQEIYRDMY

Mus musculus [2] = assay: Hypolipidemic activity in high fat diet-induced nonalcoholic steatohepatitis PPARalpha knockout C57BL/6J mouse model assessed as reduction in plasma triglyceride levels at 3 mg/kg, po measured after 72 hrs; format: functional, organism-based
Mus musculus [3] = assay: Hypolipidemic activity in high fat diet-induced nonalcoholic steatohepatitis C57BL/6J mouse model assessed as reduction in hepatic […] content at 3 mg/kg, po administered once daily via gavage for 7 days; format: functional, organism-based; conditions: time 7.0 day
Mus musculus [4] = assay: Hypolipidemic activity in high fat diet-induced nonalcoholic steatohepatitis C57BL/6J mouse model assessed as reduction in lipid accumulation in liver at 3 mg/kg, po administered once daily for 1 week by Oil Red O staining based assay; format: functional, organism-based; conditions: time 1.0 weeks
[5] = target: T2, Peroxisome proliferator-activated receptor alpha (Mus musculus) (UniProt P23204); assay: In vivo agonist activity at PPARalpha in high fat diet-induced nonalcoholic steatohepatitis C57BL/6J mouse model assessed as increase in ACOX1 mRNA expression in liver administered at 3 mg/kg, po administered once daily for 7 days by quantitative real time PCR analysis; format: functional, organism-based; conditions: time 7.0 day
T2 sequence (whole entry): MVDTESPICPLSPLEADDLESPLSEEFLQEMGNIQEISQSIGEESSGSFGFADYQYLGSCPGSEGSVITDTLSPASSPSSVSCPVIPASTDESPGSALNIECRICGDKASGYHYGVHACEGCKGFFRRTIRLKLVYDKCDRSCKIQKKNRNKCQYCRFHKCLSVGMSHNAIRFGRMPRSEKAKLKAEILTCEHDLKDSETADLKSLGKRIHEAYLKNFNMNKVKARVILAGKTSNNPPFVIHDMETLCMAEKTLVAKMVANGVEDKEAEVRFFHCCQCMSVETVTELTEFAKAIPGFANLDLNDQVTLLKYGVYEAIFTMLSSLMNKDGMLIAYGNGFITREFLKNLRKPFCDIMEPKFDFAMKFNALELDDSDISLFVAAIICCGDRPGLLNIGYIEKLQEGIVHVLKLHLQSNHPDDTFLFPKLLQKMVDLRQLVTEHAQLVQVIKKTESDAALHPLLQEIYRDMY

Mus musculus [6] = assay: Hypolipidemic activity in high fat diet-induced nonalcoholic steatohepatitis C57BL/6J mouse model assessed as reduction in plasma triglyceride level at 3 mg/kg, po administered via gavage and measured after 24 hrs; format: functional
Mus musculus [7] = assay: Upregulation of PPARalpha expression in liver of high fat diet-induced nonalcoholic steatohepatitis C57BL/6J mouse model at 3 mg/kg, po and measured after 24 hrs by quantitative real time PCR analysis; format: functional, organism-based
[8] = target: T2, Peroxisome proliferator-activated receptor alpha (Mus musculus); assay: In vivo agonist activity at PPARalpha in high fat diet-induced nonalcoholic steatohepatitis C57BL/6J mouse model assessed as increase in mCPT1A gene expression in liver at 3 mg/kg, po administered once daily for 7 days and measured at >3 days by quantitative real time PCR analysis; format: functional, organism-based; conditions: time day >3
[9] = target: T2, Peroxisome proliferator-activated receptor alpha (Mus musculus); assay: In vivo agonist activity at PPARalpha in high fat diet-induced nonalcoholic steatohepatitis C57BL/6J mouse model assessed as increase in LPL mRNA expression in liver administered at 3 mg/kg, po administered once daily for 7 days by quantitative real time PCR analysis; format: functional, organism-based; conditions: time 7.0 day

EC50 [1]: 870 pM | Activity [5]: Active | Activity [8]: Active | Activity [9]: Active
Compound: COc1ccc(Cn2c(CCCc3ccc(OC(C)(C)C(=O)O)cc3)nn(Cc3ccc(C)cc3)c2=O)cc1
Activity (Mus musculus [2]): inactive | Activity (Mus musculus [3]): Active | Activity (Mus musculus [4]): Active | inhibition in vivo at 3 mg/kg (Mus musculus [6]): ≥ 50% | Activity (Mus musculus [7]): Active
